Experimental data: patent publication US7666619B2, “Compounds and methods for regulating bacterial growth and pathogenesis” (Princeton University, priority 2000, dated 2010)

Assays:
[1] = test system: V. harveyi strains MM32, BB120, BB170; assay: Microtiter crystal violet biofilm formation assay; format: cell-based, Vibrio harveyi
Method: (§1) Biofilm formation was measured using a microtiter-based assay. Free-swimming (planktonic) bacteria were cultured in AB or LB media supplemented with glucose in 96 well microtiter dishes. Biofilms typically formed along the walls of the wells at the interface of the liquid and air phase. At the end of the incubation, aliquots of a crystal violet solution (stock 0.1%) were added to the wells to stain both the adherent and the non-adherent cells. The wells were then washed with deionized water to remove non-adherent cells, and the bound crystal violet solubilized with 200 microliters of water. Absorbance reading at 600 nm (A600) were used to quantitate the amount of crystal violet dye that had adhered to the biofilms. When indicated, synthetic AI-2 was added to the wells at the beginning of the cultures.
Various amounts of synthetic AI-2 were added to the initial free-swimming bacterial cultures in LB media supplemented with glucose, and biofilm formation measured at the end of the incubation.

[2] = test system: Pseudomonas aeruginosa (ATCC 27853); assay: Microtiter crystal violet biofilm formation assay; format: cell-based; conditions: AB media with glucose; pH-dependent
Method: as §1
The effects of AI-2 on biofilm formation were also evaluated in Pseudomonas aeruginosa (ATCC 27853)(FIG. 27). Biofilm formation by this organism is of particular interest because of the association of Pseudomonas aeruginosa biofilms with decreased lung capacity in subjects with cystic fibrosis.

[3] = test system: MM32 indicator strain (LuxS−, LuxN−) of V. harveyi; assay: MM32 bioluminescence assay; format: cell-based, Vibrio harveyi; conditions: various doses, 6-hour incubation
Method: The MM32 indicator strain (LuxS−, LuxN−) of V. harveyi was incubated with various doses of AI-2 and the bioluminescence signal measured at various time points during a 6-hour incubation.
Exogenous synthetic autoinducer-2 was added at the outset of the assay at a final concentration of 25 μg/ml. QXP-048 was added at the outset of the assay at a final concentration of 25 μg/ml. […] Exogeneous synthetic autoinducer-2 was added at the outset of the assay to a final concentration of 25 μg/ml. QXP-048 was added at the outset of the assay at a final concentration of 25 μg/ml.
The invention provides a luxN− and luxS− strain of V. harveyi, designated MM32, for identifying inhibitors of the quorum-sensing pathway. […] Further, since MM32 cannot produce AI-2, addition of exogenous AI-2 or its analogs allows rapid identification of inhibitors of AI-2.

[4] = Characterization of AI-2 activity: acid, base and heat stability; format: physicochemical
SdiA = assay: Effect of autoinducer on SdiA regulated gene expression (rck::MudJ fusion, β-galactosidase); format: cell-based; conditions: AI-2 from E. coli or S. typhimurium, 0.4 M NaCl osmotic shock fluids at 10% (v/v)
Description: It was possible that the AI-2 autoinducer that we have been characterizing in S. typhimurium and E. coli acted through SdiA. […] In E. coli, we assayed an ftsQ1p2p-lacZ reporter, and in S. typhimurium we assayed an rck::MudJ fusion in both an sdiA^+ and sdiA^− background. We tested the effects of addition of LB, 0.4 M NaCl, 0.4 M NaCl osmotic shock fluids containing AI-2 activity from S. typhimurium LT2, E. coli O157, and 0.4 M NaCl osmotic shock fluid from E. coli DH5α.
For ftsQ regulation in E. coli, the plasmids pMS207 and pMS209 were transformed into E. coli strain MC4100 (Silhavy et al., 1984, supra), and the transformants were grown overnight in LB containing 100 mg/L ampicillin at 30° C. with aeration. For rck regulation, S. typhimurium strains BA1105 (rck::MudJ) and BA1305 (rck::MudJ sdiA) were grown overnight in LB containing 100 mg/L kanamycin at 30° C. with aeration. The overnight cultures were diluted 20-fold into fresh medium and grown for an additional 4.5 h. At this time, each culture was divided into five identical aliquots and 10% (v/v) of one of the following was added to each aliquot: LB, 0.4M NaCl, 0.4M osmotic shock fluids from S. typhimurium LT2, E. coli O157 or E. coli strain DH5α (negative control). The osmotic shock fluids were prepared as described above, following pre-growth of the S. typhimurium LT2 and E. coli in LB containing 0.5% glucose for 6 h. […]

With `CC1=C(O)C(=O)CO1` [AI-2, 4-hydroxy-5-methyl-2h-furan-3-one] the biofilm formation ([1]; MM32 strain, low doses, LB media with glucose) was “block biofilm formation”, the biofilm formation ([1]; higher concentrations, all V. harveyi strains tested) was “stimulated biofilm formation” and the biofilm formation ([1]; indicator strain BB170, low doses, LB media with glucose) was “increases the extent of biofilm that forms”. The “biofilm production after addition to the medium” value ([1]; null mutant (AI-1−/AI-2−) V. harveyi) was “allows (AI-1−/AI-2−) V. harveyi to produce biofilm”, the biofilm formation ([1]; wild-type strain BB120, low doses, LB media with glucose) was “increases the extent of biofilm that forms” and the biofilm formation [2] was “dose-dependent increase in the level of biofilm formation”. The bioluminescence signal [3] was “induction of bioluminescence”, the “stability of activity to acid” value [4] was “acid-stable” and the “stability of activity to base” value [4] was “base-labile”. The “temperature of heating withstood by the activity” value ([4]; but not 100° C.) was “about 80 °C” and the “change in β-galactosidase production” value (SdiA) was “No change”.
